What is called IC50 is the point on the concentration scale where inhibition reaches its midpoint.

This assay has as its target SRC (Homo sapiens, UniProt P12931). The experiment in a line: SRC Biochemical Assay Protocol (microfluidic mobility shift assay, FLPeptide4 substrate). As to the method: SRC Biochemical Assay Protocol
Src biochemical kinase activity was measured using a surrogate fluorescent peptide substrate [FLPeptide4; 5-FAM-EGIYGVLFKKK-CONH2 (PerkinElmer Cat. No. 760348)] with a microfluidic mobility shift assay. Reactions were performed in 384-well flat bottom polystyrene microplates (Corning Cat. No. 3570) at a final volume of 20 μL in 50 mM HEPES pH 7.4, 1 mM EGTA, 10 mM MgCl2, 0.01% Brij-35, 2 mM DTT, 0.05% BSA, 1% DMSO. Inhibition experiments were performed with compounds of the invention varying from 0.0017-100 μM with 0.26 nM SRC, 1.5 μM FLPeptide4, and 50 μM ATP. Specifically, 15 μl 1.3× mixtures of SRC+FLPeptide4+compounds were preincubated for 30 minutes at room temperature followed by addition of 5 μL 4×ATP. Reactions were carried out for 90 minutes then quenched with 40 μl 500 mM EDTA. Phosphorylated peptide product was measured with a mobility shift assay using a LabChip® EZ Reader system (PerkinElmer Cat. No. 122919). Inhibition ratios were calculated relative to neutral controls and IC50 values were obtained from dose response data fitted to a 4-parameter logistic model.
For the molecule `C=CC(=O)NCC#Cc1c(-c2ccc(Oc3ncccn3)cc2)c2c(N)ncnc2n1C` [III-95], the half-inhibitory concentration (IC50) fell in the range of 1000 to 10000 nM. `Cn1c(C#CC2CN(C(=O)/C=C/CN3CC(O)C3)C2)c(-c2ccc(Oc3ccccc3)cc2)c2c(N)ncnc21` [III-78]: the IC50 lay within 10 to 1000 nM. In the case of `Cn1c(C#CC2CN(C(=O)/C=C/CN3CCOCC3)C2)c(-c2ccc(Oc3ccccc3)cc2)c2c(N)ncnc21` [III-61], the IC50 is 10 to 1000 nM. As for `C=CC(=O)NCC#Cc1c(-c2ccc(Oc3ncccn3)c(OC)c2)c2c(N)ncnc2n1C` [III-94], the concentration for half-maximal inhibition (IC50) lay within 1000 to 10000 nM. As to `C=CC(=O)N1CCC(N2CC(C#Cc3c(-c4ccc(Oc5ccccc5)cc4)c4c(N)ncnc4n3[C@H]3CCOC3)C2)CC1` [III-63], the half-maximal inhibitory concentration (IC50) was not above 10 nM. `C=CC(=O)N1CCC(N2CC(C#Cc3c(-c4ccc(Oc5ccccc5)cc4)c4c(N)ncnc4n3C)C2)C[C@H]1CO` (some centres unmarked) [III-64]: the IC50 was in the range of 10 to 1000 nM. In the case of `CC(C)n1c(C#CC2CCN(C#N)CC2)c(-c2ccc(Oc3ccccc3)cc2)c2c(N)ncnc21` [Example I-2], the IC50 lay in the range of 10 to 1000 nM.

With `C=C(C)C(=O)N1CCC(C#Cc2c(-c3ccc(Oc4ccccc4)cc3)c3c(N)ncnc3n2C)CC1` [III-40], the half-maximal inhibitory concentration (IC50) is 10 to 1000 nM. For `C=C(C)C(=O)N1CCC(N2CC(C#Cc3c(-c4ccc(Oc5ccccc5)cc4)c4c(N)ncnc4n3C)C2)CC1` [III-38] the value was 10 to 1000 nM; for `C=CC(=O)N1CCC(C#Cc2c(-c3ccc(Oc4ccccc4)cc3)c3c(N)ncnc3n2CCCCN(C)C)C1` (centres unmarked) [III-20], 10 to 1000 nM.

With `C=CC(=O)N1CCC(N2CC(C#Cc3c(-c4ccc(Oc5ccccc5)cc4)c4c(N)ncnc4n3C)C2)C(C)C1` (centres unmarked) [III-49], the IC50 fell in the range of 10 to 1000 nM. Consider `C=CC(=O)NC1CCN(C2CC(C#Cc3c(-c4ccc(Oc5ccccc5)cc4)c4c(N)ncnc4n3C)C2)CC1` (centres unmarked) [III-51], for which the IC50 lay within 10 to 1000 nM.

For the molecule `CN(C)C/C=C/C(=O)N1CC(C#Cc2c(-c3ccc(Oc4ccccc4)cc3)c3c(N)ncnc3n2C)C1` [III-84], the concentration for half-maximal inhibition (IC50) is 10 to 1000 nM.

As for `CN(C)C/C=C/C(=O)N1CC2(C1)CC(O)(C#Cc1c(-c3ccc(Oc4ccccc4)cc3)c3c(N)ncnc3n1C)C2` [III-26], the half-inhibitory concentration (IC50) fell in the range of 10 to 1000 nM. For the molecule `C=CC(=O)N1CCC(N2CC(C#Cc3c(-c4ccc(Oc5ccccc5)c(C#N)c4)c4c(N)ncnc4n3C)C2)CC1` [III-74], the 50% inhibitory concentration (IC50) was more than 10000 nM. For `C=CC(=O)N1CCC(N2CC(N)(C#Cc3c(-c4ccc(Oc5cccc(C)n5)c(OC)c4)c4c(N)ncnc4n3C)C2)CC1` [III-93], the IC50 lay in the range of 1000 to 10000 nM. For `C=CC(=O)N1CCC(N2CC(C#Cc3c(-c4ccc(Oc5ccccc5)cc4)c4c(N)ncnc4n3[C@H]3C[C@@H](O)C3)C2)CC1` [III-70], the half-inhibitory concentration (IC50) was not above 10 nM. In the case of `CC(C)n1c(C#CC2CCN(C)CC2)c(-c2ccc(Oc3ccccc3)cc2)c2c(N)ncnc21` [II-141, 7-isopropyl-6-((1-methylpiperidin-4-yl)ethynyl)-5-(4-phenoxyphenyl)-7H-pyrrolo[2,3-d]pyrimidin-4-amine], the 50% inhibitory concentration (IC50) was not above 10 nM. Regarding `CN(C)C/C=C/C(=O)N1CCC(C#Cc2c(-c3ccc(Oc4ccccc4)cc3)c3c(N)ncnc3n2C)CC1` [III-14], the IC50 was 10 to 1000 nM. For `CC(CO)n1c(C#CC2CCN(C(=O)/C=C/CN(C)C)C2)c(-c2ccc(Oc3ccccc3)cc2)c2c(N)ncnc21` (centres unmarked) [III-32], the IC50 fell in the range of 10 to 1000 nM. Turning to “1-(4-(3-((4-amino- 7-isopropyl-5-(3- methoxy-4-(6- methylpyridin-2- yloxy)phenyl)-7H- pyrrolo[2,3- d]pyrimidin-6- yl)ethynyl)azetidin- 1-yl)piperidin-1- yl)prop-2-en-1-one [II-306]”, the IC50 lay within 10 to 1000 nM. In the case of `Nc1ncnc2c1c(-c1ccc(Oc3ccccc3)cc1)c(C#CC1CCN(C(=O)/C=C/CN3CCOCC3)CC1)n2[C@H]1CCOC1` [III-36], the IC50 was in the range of 10 to 1000 nM. Take `C=CC(=O)N1CCC(N2CC(F)(C#Cc3c(-c4ccc(Oc5cccc(C)n5)c(OC)c4)c4c(N)ncnc4n3C)C2)C[C@H]1COC` (some centres unmarked) [III-92]: the half-maximal inhibitory concentration (IC50) was in the range of 10 to 1000 nM.

`CC(C(=O)O)N1CCC(C#Cc2c(-c3ccc(Oc4ccccc4)cc3)c3c(N)ncnc3n2C(C)C)CC1` (centres unmarked) [II-149, 2-(4-((4-amino-7-isopropyl-5-(4-phenoxyphenyl)-7H-pyrrolo[2,3-d]pyrimidin-6-yl)ethynyl)piperidin-1-yl)propanoic acid]: the concentration for half-maximal inhibition (IC50) is not above 10 nM. Regarding `C=CC(=O)N1CC(N2CCC(C#Cc3c(-c4ccc(Oc5ccccn5)cc4)c4c(N)ncnc4n3C(C)C)CC2)C1` [Example I-47], the half-maximal inhibitory concentration (IC50) is 10 to 1000 nM. Turning to `C=C(C)C(=O)N1CCC(O)(C#Cc2c(-c3ccc(Oc4ccccc4)cc3)c3c(N)ncnc3n2C)CC1` [III-35], the IC50 is 10 to 1000 nM.

Turning to `C=CC(=O)N1CCC(O)(C#Cc2c(-c3ccc(Oc4ccccc4)cc3)c3c(N)ncnc3n2C)C1` (centres unmarked) [III-13], the IC50 is not above 10 nM. Consider `C#Cc1c(-c2ccc(Oc3ccccc3)cc2)c2c(N)ncnc2n1C(C)C` [III-6], for which the IC50 lay in the range of 10 to 1000 nM. Take `C=CC(=O)N1CCC(N2CC(C#Cc3c(-c4ccc(Oc5ccccc5)cc4)c4c(N)ncnc4n3C)C2)CC1` [III-25]: the half-maximal inhibitory concentration (IC50) is 10 to 1000 nM.

Consider `CC(C)n1c(C#CC2CCN(C(=O)/C=C/CN(C)C)C2)c(-c2ccc(Oc3ccccc3)cc2)c2c(N)ncnc21` (centres unmarked) [III-12], for which the IC50 is not above 10 nM. For `Cn1c(C#CC2(O)CCN(C(=O)/C=C/CN3CCOCC3)CC2)c(-c2ccc(Oc3ccccc3)cc2)c2c(N)ncnc21` [III-39] the value was 10 to 1000 nM.

For the molecule `C=CC(=O)N1CCC(N2CC(C#Cc3c(-c4ccc(Oc5cccc(C)n5)cc4)c4c(N)ncnc4n3C)C2)CC1` [III-75], the IC50 was 10 to 1000 nM. `COc1cc(-c2c(C#CC3CN(C)C3)n(C)c3ncnc(N)c23)ccc1Oc1cccc(C)n1` [III-86]: the concentration for half-maximal inhibition (IC50) lay in the range of 10 to 1000 nM. For `C=CC(=O)N1CCC(C#Cc2c(-c3ccc(Oc4ccccc4C#N)cc3)c3c(N)ncnc3n2C(C)C)CC1` [Example I-31] the value was 10 to 1000 nM; for `C=CC(=O)N1CCC(N2CC(C#Cc3c(-c4ccc(Oc5ccccn5)c(OC)c4)c4c(N)ncnc4n3C)C2)C(S(C)(=O)=O)C1` (centres unmarked) [III-87], 10 to 1000 nM. Regarding `C=CS(=O)(=O)N1CC(N2CCC(C#Cc3c(-c4ccc(Oc5ccccc5)cc4)c4c(N)ncnc4n3C(C)C)CC2)C1` [Example I-53], the IC50 was not above 10 nM. Consider `C=CC(=O)N1CCC(C#Cc2c(-c3ccc(Oc4ccccc4)cc3)c3c(N)ncnc3n2C2CCOC2)C1` (centres unmarked) [III-21], for which the half-maximal inhibitory concentration (IC50) lay in the range of 10 to 1000 nM. Turning to `CC(C)n1c(C#CC2CCN(C3CNC3)CC2)c(-c2ccc(Oc3ccccc3)cc2)c2c(N)ncnc21` [II-153, 6-((1-(azetidin-3-yl)piperidin-4-yl)ethynyl)-7-isopropyl-5-(4-phenoxyphenyl)-7H-pyrrolo[2,3-d]pyrimidin-4-amine], the half-inhibitory concentration (IC50) is not above 10 nM. With `CCC(=O)N1CC(N2CCC(C#Cc3c(-c4ccc(Oc5ccccc5)cc4)c4c(N)ncnc4n3C(C)C)CC2)C1` [II-158, 1-(3-(4-((4-amino-7-isopropyl-5-(4-phenoxyphenyl)-7H-pyrrolo[2,3-d]pyrimidin-6-yl)ethynyl)piperidin-1-yl)azetidin-1-yl)propan-1-one], the half-inhibitory concentration (IC50) lay in the range of 10 to 1000 nM. For `C=CC(=O)N1CCC(C#Cc2c(-c3ccc(Oc4ccccc4)cc3)c3c(N)ncnc3n2C(C)CO)C1` (centres unmarked) [III-33], the IC50 fell in the range of 10 to 1000 nM. `Nc1ncnc2c1c(-c1ccc(Oc3ccccc3)cc1)c(C#CC1CCNCC1)n2C1CCOC1` (centres unmarked) [II-155, 5-(4-phenoxyphenyl)-6-(piperidin-4-ylethynyl)-7-(tetrahydrofuran-3-yl)-7H-pyrrolo[2,3-d]pyrimidin-4-amine]: the IC50 was not above 10 nM.
